Assay results reported in US8841233B2, “Herbicidal compositions comprising 4-amino-3-chloro-5-fluoro-6-(4-chloro-2-fluoro-3-methoxyphenyl) pyridine-2-carboxylic acid or a derivative thereof and 4-hydroxyphenyl-pyruvate dioxygenase (HPPD) inhibitors” (Dow Agrosciences LLC, priority 2012, dated 2014).
Several values for one entry are separate records, joined by “and”; a condition that tells them apart may be missing. Identical values can stand only once.

Key:
Assay in all cases: Post-emergence foliar-applied weed control, greenhouse (Example I);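 on Visual Weed Control (%) - 20 DAA IPOHE Obs: visual score 0 no injury to 100 complete kill versus untreated plants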
DIGSA = type: in vivo, Digitaria sanguinalis (L.) Scop.
Excerpt: (§1) Evaluation of Post-emergence Foliar-Applied Herbicidal Mixtures for Weed Control in Direct Seeded Rice
(§2) Seeds or nutlets of the desired test plant species were planted in a soil matrix prepared by mixing a loam or sandy loam soil (e.g., 28.6 percent silt, 18.8 percent clay, and 52.6 percent sand, with a pH of about 5.8 and an organic matter content of about 1.8 percent) and calcareous grit in an 80 to 20 ratio. The soil matrix was contained in plastic pots with a volume of 1 quart and a surface area of 83.6 square centimeters (cm^2). When required to ensure good germination and healthy plants, a fungicide treatment and/or other chemical or physical treatment was applied. The plants were grown for 8-22 days in a greenhouse with an approximate 14 h photoperiod which was maintained at about 29° C. during the day and 26° C. during the night. Nutrients (Peters Excel® 15-5-15 5-Ca 2-Mg and iron chelate) were applied in the irrigation solution as needed and water was added on a regular basis. Supplemental lighting was provided with overhead metal halide 1000-Watt lamps as necessary. The plants were employed for testing when they reached the first through fourth true leaf stage.
(§3) Treatments consisted of the acid or esters of 4-amino-3-chloro-5-fluoro-6-(4-chloro-2-fluoro-3-methoxy-phenyl)pyridine-2-carboxylic acid (Compound A), each formulated as an SC (suspension concentrate), and various herbicidal components alone and in combination. Forms of Compound A were applied on an acid equivalent basis.
(§4) Other herbicidal components were applied on an active ingredient basis and included 4-hydroxyphenyl pyruvate dioxygenase (HPPD)-inhibiting herbicides mesotrione formulated as Callisto®, sulcotrione formulated as Mikado®, pyrazolynate formulated as Sunbird® 10% GR, and benzobicyclon formulated as Benzobicyclon 3.5%.
(§5) Treatment requirements were calculated based upon the rates being tested, the concentration of active ingredient or acid equivalent in the formulation, and a 12 mL application volume at a rate of 187 L/ha.
(§6) For treatments comprised of formulated compounds, measured amounts of compounds were placed individually in 25 mL glass vials and diluted in a volume of 1.25% (v/v) Agri-Dex® crop oil concentrated to obtain 12× stock solutions. […] Application solutions were prepared by adding an appropriate amount of each stock solution (e.g., 1 mL) and diluted to the appropriate final concentrations with the addition of 10 mL of an aqueous mixture of 1.25% (v/v) crop oil concentrate so that the final spray solutions contained 1.25+/−0.05% (v/v) crop oil concentrate.
(§7) For treatments comprised of formulated and technical compounds, weighed amounts of the technical materials were placed individually in 25 mL glass vials and dissolved in a volume of 97:3 v/v acetone/DMSO to obtain 12× stock solutions, and measured amounts of the formulated compounds were placed individually in 25 mL glass vials and diluted in a volume of 1.5% (v/v) crop oil concentrate or water to obtain 12× stock solutions. […] Application solutions were prepared by adding an appropriate amount of each stock solution (e.g., 1 mL) and diluted to the appropriate final concentrations with the addition of an appropriate amount of an aqueous mixture of 1.5% (v/v) crop oil concentrate so that the final spray solutions contained 1.25% (v/v) crop oil concentrate. As required, additional water and/or 97:3 v/v acetone/DMSO was added to individual application solutions so that the final acetone and DMSO concentrations of the application solutions being compared were 8.1% and 0.25%, respectively.
(§8) All stock solutions and applications solutions were visually inspected for compound compatibility prior to application. Spray solutions were applied to the plant material with an overhead Mandel track sprayer equipped with a 8002E nozzles calibrated to deliver 187 L/ha over an application area of 0.503 m^2 at a spray height of 18 to 20 inches (46 to 50 cm) above average plant canopy height. […]

BRAPP = type: in vivo
Excerpt: as §1, §2, §3, §4, §5, §6, §7, §8

IPOHE = type: in vivo, Ipomoea hederacea Jacq.
Excerpt: as §1, §2, §3, §4, §5, §6, §7, §8

Row | Structure (SMILES) | Visual Weed Control (%) - 20 DAA DIGSA Obs (DIGSA; 4.38 gae/ha) [%] | Visual Weed Control (%) - 20 DAA DIGSA Obs (DIGSA; 8.75 gae/ha) [%] | Visual Weed Control (%) - 20 DAA DIGSA Obs (DIGSA; 17.5 gae/ha) [%] | Visual Weed Control (%) - 20 DAA DIGSA Obs (DIGSA; 35 gae/ha) [%] | Visual Weed Control (%) - 20 DAA BRAPP Obs (BRAPP; 4.38 gae/ha) [%] | Visual Weed Control (%) - 20 DAA BRAPP Obs (BRAPP; 8.75 gae/ha) | Visual Weed Control (%) - 20 DAA IPOHE Obs (IPOHE; 4.38 gae/ha) [%] | Visual Weed Control (%) - 20 DAA IPOHE Obs (IPOHE; 8.75 gae/ha) [%] | Visual Weed Control (%) - 20 DAA IPOHE Obs (IPOHE; 17.5 gae/ha) [%] | Visual Weed Control (%) - 20 DAA BRAPP Obs (BRAPP; 17.5 gae/ha) [%] | Visual Control (%) - 20 DAA IPOHE Obs (IPOHE; 4.38 gae/ha) [%] | Visual Control (%) - 20 DAA IPOHE Obs (IPOHE; 8.75 gae/ha) [%] | Visual Control (%) - 20 DAA IPOHE Obs (IPOHE; 17.5 gae/ha) [%] | Visual Weed Control (%) - 21 DAA IPOHE Obs (IPOHE; 17.5 gae/ha) [%] | Visual Weed Control (%) - 21 DAA IPOHE Obs (IPOHE; 35 gae/ha) [%]
1 | COc1c(Cl)ccc(-c2nc(C(=O)OCc3ccccc3)c(Cl)c(N)c2F)c1F [Compound A Benzyl Ester, benzyl ester of 4-amino-3-chloro-5-fluoro-6-(4-chloro-2-fluoro-3-methoxy-phenyl)pyridine-2-carboxylic acid] | 25 | 40 | 50 | 38 | 50 | 70% | 10 | 10 | 20 |  |  |  |  |  | 
2 | COc1c(Cl)ccc(-c2nc(C(=O)O)c(Cl)c(N)c2F)c1F [Compound A Acid, 4-amino-3-chloro-6-(4-chloro-2-fluoro-3-methoxyphenyl)-5-fluoropyridine-2-carboxylic acid] | 40 | 45 | 45 |  |  | 60% and 80% |  |  |  | 85 | 10 | 35 | 40 | 25 | 48
